Values of other authors as cited in patent publication US7041675B2, “Heterocyclic compounds and their use as PARP inhibitors” (Abbott GmbH & Co. KG, priority 2000, dated 2006).

System: model of circulatory shock
Details: S. Cuzzocrea et al., Br. J. Pharmacol. 1997

In the case of `NC(=O)c1cccc(N)c1` [3-aminobenzamide], the “protective effects in a model of circulatory shock” value is given as “protective effects”.
